Counter-ions that a name gives are not always drawn.
How the values were obtained:
MMP-13 = test: Intracellular MMP-13 level in IL-1-treated chondrocytes, flow cytometry; type: cell-based, human; settings: for change in levels of MMP-13: IL-1+ chondrocytes, treated compared to untreated; for MMP-13: 7 days, average of three measures
Method: (§1) Each of the compounds (Ib, IC) has been tested on human articular cartilage chondrocytes obtained from 2 different donors. The chondrocytes were cultured over 7 days in alginate gel and during this period they were exposed to the different drugs. The cells were then isolated from the gel and tested. The test protocol specified that the chondrocytes were exposed to IL-1 since it has been shown that particularly IL-1-treated chondrocytes, as opposed to non-treated chondrocytes, respond to polysulphated polysaccharides. As a positive control, chondroitin sulphate (CS) and chondroitin polysulphate (CPS) have been used.
(§2) The accumulation of aggrecan and of type II collagen in the cell-associated matrix (CAM) of the chondrocytes in culture was the primary variable to evaluate the DMOAD (Disease Modifying Osteoarthritic Drug) effects of the 2 compounds. The intracellular levels of IL-1α and β, MMP-13 were also studied.
(§3) All assays were made by flow cytometry. Specific Fluoresceine Isothiocyanate- (FITC-) or Phycoerythin (PE-) conjugated monoclonal antibodies (Mab) against the different proteins have been used. The results were expressed as Mean Fluorescence Intensity (MFI) of the chondrocyte population after staining with the respective Mab.

type II collagen = test: Type II collagen accumulation in cell-associated matrix of IL-1-treated chondrocytes in alginate gel, flow cytometry; type: cell-based, human; settings: for change in accumulation of type II collagen in the CAM: IL-1+ chondrocytes, treated compared to untreated; for COLL (type II collagen): 7 days, average of three measures
Method: as §1, §2, §3

IL-1α = test: Intracellular IL-1α level in IL-1-treated chondrocytes, flow cytometry; type: cell-based, human; settings: for change in levels of IL-1α: IL-1+ chondrocytes, treated compared to untreated; for IL-1α / IL-Iα: 7 days, average of three measures
Method: as §1, §2, §3

IL-1β = test: Intracellular IL-1β level in IL-1-treated chondrocytes, flow cytometry; type: cell-based, human; settings: for change in levels of IL-1β: IL-1+ chondrocytes, treated compared to untreated; for IL-1β: 7 days, average of three measures
Method: as §1, §2, §3

aggrecan = test: Aggrecan accumulation in cell-associated matrix of IL-1-treated chondrocytes in alginate gel, flow cytometry; type: cell-based, human; settings: for change in accumulation of aggrecan in the CAM: IL-1+ chondrocytes, treated compared to untreated; for AGGR (aggrecan): 7 days, average of three measures
Method: as §1, §2, §3

[1] = tested on: human articular chondrocytes; test: Overall DMOAD (cartilage structure modifying) effect on cultured chondrocytes; type: cell-based; settings: effects comparable to those of CS and CPS
Method: as §1, §2, §3

[2] = Table 1, donor F53 + IL-1β, 10 μ/ml
[3] = Table 2, donor F53 + IL-1β, 10 μg/ml
[4] = Table 2, donor F53 + IL-1β, 25 μg/ml
[5] = Table 1, donor F53 + IL-1β, 25 μ/ml

Molecule | change in levels of MMP-13 (MMP-13) | MMP-13 (MMP-13; [2]) [MFI] | MMP-13 (MMP-13; [3]) [MFI] | MMP-13 (MMP-13; donor F16 + IL-1β, 10 μ/ml) [MFI] | MMP-13 (MMP-13; donor F73 + IL-1β, 10 μg/ml) [MFI] | change in accumulation of type II collagen in the CAM (type II collagen) | COLL (type II collagen) (type II collagen; [2]) [MFI] | COLL (type II collagen) (type II collagen; [3]) [MFI] | COLL (type II collagen) (type II collagen; donor F16 + IL-1β, 10 μ/ml) [MFI] | COLL (type II collagen) (type II collagen; donor F73 + IL-1β, 10 μg/ml) [MFI] | change in levels of IL-1α (IL-1α) | IL-1α (IL-1α; [2]) [MFI] | IL-Iα (IL-1α; [3]) [MFI] | IL-1α (IL-1α; donor F16 + IL-1β, 10 μ/ml) [MFI] | IL-Iα (IL-1α; donor F73 + IL-1β, 10 μg/ml) [MFI] | change in levels of IL-1β (IL-1β) | IL-1β (IL-1β; [2]) [MFI] | IL-1β (IL-1β; [3]) [MFI] | IL-1β (IL-1β; donor F16 + IL-1β, 10 μ/ml) [MFI] | IL-1β (IL-1β; donor F73 + IL-1β, 10 μg/ml) [MFI] | also measured
chondroitin sulphate [CS] | statistically significant decrease | 14.70 | 14.70 | 23.34 | 21.12 | statistically significant increase | 1.23 | 1.23 | 2.97 | 1.45 | statistically significant decrease | 45.41 | 45.41 | 17.09 | 17.49 | statistically significant decrease | 3.06 | 3.06 | 1.17 | 0.47 | change in accumulation of aggrecan in the CAM (aggrecan): statistically significant increase; AGGR (aggrecan) (aggrecan; [2]): 15.09 MFI; AGGR (aggrecan) (aggrecan; [3]): 15.09 MFI; AGGR (aggrecan) (aggrecan; donor F16 + IL-1β, 10 μ/ml): 47.39 MFI; AGGR (aggrecan) (aggrecan; donor F73 + IL-1β, 10 μg/ml): 28.72 MFI
CO[C@H]1O[C@H](COS(=O)(=O)O)[C@@H](OS(=O)(=O)O)[C@H](O[C@@H]2O[C@H](C(=O)O)[C@@H](O)[C@H](O)[C@H]2O)[C@H]1NC(C)=O [Ic, Methyl 2-acetamido-2-deoxy-3-O-(β-D-glucopyranosyluronic acid)-4,6-di-O-sulfo-α-D-glucopyranoside, trisodium salt] | – | – | – | – | – | – | – | – | – | – | – | – | – | – | – | – | – | – | – | – | MMP-13 (MMP-13; [4]): 19.62 MFI; MMP-13 (MMP-13; donor F73 + IL-1β, 25 μg/ml): 18.92 MFI; COLL (type II collagen) (type II collagen; [4]): 0.97 MFI; COLL (type II collagen) (type II collagen; donor F73 + IL-1β, 25 μg/ml): 2.45 MFI; overall conclusion on effect on cartilage [1]: cartilage structure modifying effects; IL-Iα (IL-1α; [4]): 44.69 MFI; IL-Iα (IL-1α; donor F73 + IL-1β, 25 μg/ml): 14.92 MFI; IL-1β (IL-1β; [4]): 3.63 MFI; IL-1β (IL-1β; donor F73 + IL-1β, 25 μg/ml): 0.45 MFI; AGGR (aggrecan) (aggrecan; [4]): 18.42 MFI; AGGR (aggrecan) (aggrecan; donor F73 + IL-1β, 25 μg/ml): 59.82 MFI
CO[C@H]1O[C@H](COS(=O)(=O)[O-])[C@@H](O)[C@H](O[C@@H]2O[C@H](C(=O)[O-])[C@@H](O)[C@H](O)[C@H]2O)[C@H]1NC(C)=O.[Na+].[Na+] [Ib, Methyl 2-acetamido-2-deoxy-3-O-(β-D-glucopyranosyluronic acid)-6-O-sulfo-α-D-glucopyranoside, disodium salt] | – | – | – | – | – | – | – | – | – | – | – | – | – | – | – | – | – | – | – | – | MMP-13 (MMP-13; [5]): 17.67 MFI; MMP-13 (MMP-13; donor F16 + IL-1β, 25 μ/ml): 22.49 MFI; COLL (type II collagen) (type II collagen; [5]): 1.00 MFI; COLL (type II collagen) (type II collagen; donor F16 + IL-1β, 25 μ/ml): 2.92 MFI; overall conclusion on effect on cartilage [1]: cartilage structure modifying effects; IL-1α (IL-1α; [5]): 44.24 MFI; IL-1α (IL-1α; donor F16 + IL-1β, 25 μ/ml): 19.83 MFI; IL-1β (IL-1β; [5]): 2.92 MFI; IL-1β (IL-1β; donor F16 + IL-1β, 25 μ/ml): 1.03 MFI; AGGR (aggrecan) (aggrecan; [5]): 14.41 MFI; AGGR (aggrecan) (aggrecan; donor F16 + IL-1β, 25 μ/ml): 48.77 MFI
chondroitin polysulphate [CPS] | statistically significant decrease | 11.82 | 11.82 | 23.20 | 22.11 | statistically significant increase | 2.12 | 2.12 | 2.31 | 1.96 | statistically significant decrease | 43.84 | 43.84 | 16.94 | 16.43 | statistically significant decrease | 2.68 | 2.68 | 1.18 | 0.45 | change in accumulation of aggrecan in the CAM (aggrecan): statistically significant increase; AGGR (aggrecan) (aggrecan; [2]): 19.47 MFI; AGGR (aggrecan) (aggrecan; [3]): 19.47 MFI; AGGR (aggrecan) (aggrecan; donor F16 + IL-1β, 10 μ/ml): 46.41 MFI; AGGR (aggrecan) (aggrecan; donor F73 + IL-1β, 10 μg/ml): 24.71 MFI

— patent publication US6680304B2, “Disaccharides with anti-arthrosic properties” (Bioiberica, S.A., priority 2000, dated 2004)
